Tested on: UV-induced erythema
Assay: UV-induced erythema prevention test
Format: in vivo
Details: guinea pig ear, UV lamp 30 sec, 10% suspension topical, approx. 3 hours
Experimental: UV-induced erythema was caused by applying a UV lamp (Hanoivna Kramager) to the ear of a guinea pig for 30 sec; the lamp transmitted rays with a wavelength of […], which consequently included UV-B, UV-C and UV-A rays, through a special filter.
Excipients only or a suspension containing 5 or 10% 2,4,6,8,10,12,14-hexadecaheptaenol palmitate were spread on the ear of the test animals, and the temperature increase resulting from the UV-induced erythema was measured with a thermoelectric thermometer after approx. 3 hours in the control animals and the test animals.

CC=CC=CC=CC=CC=CC=CC=CCOC(=O)CCCCCCCCCCCCCCC [2,4,6,8,10,12,14-hexadecaheptaenyl palmitate]
appearance of heat and erythema: inhibited
